From article PMC12583704 (Signal Transduction and Targeted Therapy, 2025)
Where “and” joins values, the source holds several entries; their conditions need not be identical. Identical values can stand only once.

Test: Phase 1 study NCT03594422: adverse events graded by NCI CTCAE v4.03
Assay type: in vivo, human
Method: Part 1 was a dose-escalation study to determine the recommended phase 2 dose (RP2D) in solid tumors. […] The initial design was a 3 + 3 dose escalation from 20 mg, but the protocol was amended to randomly enroll and assign patients to starting doses of 30, 40, and 50 mg on the basis of safety data acquired in the CML trial.[20] […] An interactive web response system was used for randomization. Part 2 was a nonrandomized study focusing on patients with SDH-deficient GISTs. […] On the basis of preliminary data from adult patients, adolescent patients with advanced wild-type GISTs were also included in Part 2. The dosage for adolescents was adjusted according to their body weights.
AEs were evaluated at each follow-up visit: on Days 1, 8, 15, and 22 during Cycles 1 and 2; and on Days 1 and 15 in Cycle 3 and all subsequent cycles, up to 30 days after the final dose. All AEs were graded according to the National Cancer Institute Common Terminology Criteria for Adverse Events v4.03. Clinical laboratory investigations for routine blood examinations and serum chemistry parameters were performed during every cycle (on Day 1), during Cycles 1 and 2 (on Days 8, 15, and 22), and 30 days after the last dose of treatment. Urinalysis, coagulation, cardiac troponin I/T, lipase, amylase, and electrocardiographic evaluations were conducted at baseline; during Cycles 1 and 2 (on Days 1 and 15); during Cycles 3, 5, 7, and 9; every three cycles after Cycle 9 (on Day 1); and 14 days after the last dose of treatment. All patients underwent tumor imaging for response assessment via computed tomography or magnetic resonance imaging at screening and every two cycles (8 weeks) until progression or discontinuation. Target and nontarget lesions were assessed per the Response Evaluation Criteria in Solid Tumors version 1.1 (RECIST v1.1).

In the case of `Cc1ccc(C(=O)Nc2ccc(CN3CCN(C)CC3)c(C(F)(F)F)c2)cc1C#Cc1cnc2[nH]ncc2c1` [Olverembatinib, 3-[(1H-pyrazolo[3,4-b]pyridin-5-yl)ethynyl]-4-methyl-N-{4-[(4-methylpiperazin-1-yl)methyl]-3-(trifluoromethyl)phenyl]benzamide], the “TRAE: Hypoalbuminemia” value (50 mg (n = 16), Grade 3-5) is reported as 0 n (%), the “TRAE: Leukocyte count increased” value (50 mg (n = 16), Grade 3-5) is reported as 0 n (%) and the “TRAE: Melanocytic nevus” value (50 mg (n = 16), Grade 3-5) is reported as 0 n (%). The “TRAE: Neutrophil count increased” value (50 mg (n = 16), Grade 3-5) was 0 n (%), the “TRAE: Platelet count increased” value (50 mg (n = 16), Grade 3-5) was 0 n (%) and the “TRAE: Pyrexia” value (50 mg (n = 16), Grade 3-5) was 0 n (%). For the same compound, the “TEAE: Abdominal pain” value (Total (n = 66), Any grade) was 15 (22.7) n (%), the “TEAE: Alanine aminotransferase increased” value (Total (n = 66), Any grade) was 25 [37.9%] n (%) and 25 (37.9) n (%) and the “TEAE: Anemia” value (Total (n = 66), Any grade) was 31 [47.0%] n (%) and 31 (47.0) n (%). For the same compound, the “TEAE: Aspartate aminotransferase increased” value (Total (n = 66), Any grade) was 31 [47%] n (%) and 31 (47.0) n (%), the “TEAE: C-reactive protein increased” value (Total (n = 66), Any grade) was 15 (22.7) n (%) and the “TEAE: Constipation” value (Total (n = 66), Any grade) was 27 [40.9%] n (%) and 27 (40.9) n (%). The “TEAE: Fatigue” value (Total (n = 66), Any grade) was 20 [30.3%] n (%) and 20 (30.3) n (%), the “TEAE: Hyperuricemia” value (Total (n = 66), Any grade) was 31 (47.0) n (%) and the “TEAE: Hypoalbuminemia” value (Total (n = 66), Any grade) was 14 (21.2) n (%). The “TEAE: Leukocyte count increased” value (Total (n = 66), Any grade) was 32 [48.5%] n (%) and 32 (48.5) n (%), the “TEAE: Melanocytic nevus” value (Total (n = 66), Any grade) was 17 (25.8) n (%) and the “TEAE: Neutrophil count increased” value (Total (n = 66), Any grade) was 25 [37.9%] n (%) and 25 (37.9) n (%). The “TEAE: Pyrexia” value (Total (n = 66), Any grade) was 28 [42.4%] n (%) and 28 (42.4) n (%), the TEAEs (Total (n = 66), Any grade) was 66 (100.0%) n (%) and 66 (100.0) n (%) and the “TRAE: ALT increased” value (Total (n = 66), Any grade) was 20 (30.3) n (%). The “TRAE: AST increased” value (Total (n = 66), Any grade) was 23 (34.8) n (%), the “TRAE: Anemia” value (Total (n = 66), Any grade) was 9 (13.6) n (%) and the “TRAE: Blood creatinine increased” value (Total (n = 66), Any grade) was 9 (13.6) n (%). The “TRAE: Constipation” value (Total (n = 66), Any grade) was 23 (34.8) n (%), the “TRAE: Fatigue” value (Total (n = 66), Any grade) was 18 (27.3) n (%) and the “TRAE: Hypoalbuminemia” value (Total (n = 66), Any grade) was 10 (15.2) n (%). For the same compound, the “TRAE: Leukocyte count increased” value (Total (n = 66), Any grade) was 27 (40.9) n (%), the “TRAE: Melanocytic nevus” value (Total (n = 66), Any grade) was 15 (22.7) n (%) and the “TRAE: Neutrophil count increased” value (Total (n = 66), Any grade) was 22 (33.3) n (%). For the same compound, the “TRAE: Platelet count increased” value (Total (n = 66), Any grade) was 7 (10.6) n (%), the “TRAE: Pyrexia” value (Total (n = 66), Any grade) was 19 (28.8) n (%) and the “TEAE: Abdominal pain” value (Total (n = 66), Grade 3-5) was 1 (1.5) n (%). The “TEAE: Alanine aminotransferase increased” value (Total (n = 66), Grade 3-5) was 2 (3.0) n (%), the “TEAE: Anemia” value (Total (n = 66), Grade 3-5) was 4 (6.1) n (%) and the “TEAE: Aspartate aminotransferase increased” value (Total (n = 66), Grade 3-5) was 2 (3.0) n (%). The “TEAE: C-reactive protein increased” value (Total (n = 66), Grade 3-5) was 0 n (%), the “TEAE: Constipation” value (Total (n = 66), Grade 3-5) was 0 n (%) and the “TEAE: Fatigue” value (Total (n = 66), Grade 3-5) was 1 (1.5) n (%). For the same compound, the “TEAE: Hyperuricemia” value (Total (n = 66), Grade 3-5) was 1 (1.5) n (%), the “TEAE: Hypoalbuminemia” value (Total (n = 66), Grade 3-5) was 0 n (%) and the “TEAE: Leukocyte count increased” value (Total (n = 66), Grade 3-5) was 0 n (%). The “TEAE: Melanocytic nevus” value (Total (n = 66), Grade 3-5) was 0 n (%), the “TEAE: Neutrophil count increased” value (Total (n = 66), Grade 3-5) was 0 n (%) and the “TEAE: Pyrexia” value (Total (n = 66), Grade 3-5) was 0 n (%). The TEAEs (Total (n = 66), Grade 3-5) was 26 (39.4) n (%), the “TRAE: ALT increased” value (Total (n = 66), Grade 3-5) was 1 (1.5) n (%) and the “TRAE: AST increased” value (Total (n = 66), Grade 3-5) was 1 (1.5) n (%). For the same compound, the “TRAE: Anemia” value (Total (n = 66), Grade 3-5) was 0 n (%), the “TRAE: Blood creatinine increased” value (Total (n = 66), Grade 3-5) was 0 n (%) and the “TRAE: Constipation” value (Total (n = 66), Grade 3-5) was 0 n (%). The “TRAE: Fatigue” value (Total (n = 66), Grade 3-5) was 1 (1.5) n (%), the “TRAE: Hypoalbuminemia” value (Total (n = 66), Grade 3-5) was 0 n (%) and the “TRAE: Leukocyte count increased” value (Total (n = 66), Grade 3-5) was 0 n (%). For the same compound, the “TRAE: Melanocytic nevus” value (Total (n = 66), Grade 3-5) was 0 n (%), the “TRAE: Neutrophil count increased” value (Total (n = 66), Grade 3-5) was 0 n (%) and the “TRAE: Platelet count increased” value (Total (n = 66), Grade 3-5) was 0 n (%). The “TRAE: Pyrexia” value (Total (n = 66), Grade 3-5) was 0 n (%), the “patients who experienced grade ≥3 TRAEs” value (all 66 patients) was 13.6% and the “patients who experienced treatment-related AEs (TRAEs)” value (all 66 patients) was 93.9%. For the same compound, the “treatment-related serious AEs” value (all 66 patients) was 7.6%, the “Treatment-related SAE” value (all patients, Population, N 68) was 5 (7.4) n (%) and the “Treatment-related SAE: Anemia” value (all patients, Population, N 68) was 1 (1.5) n (%). For the same compound, the “Treatment-related SAE: Arteriosclerosis coronary artery” value (all patients, Population, N 68) was 1 (1.5) n (%), the “Treatment-related SAE: Intestinal obstruction” value (all patients, Population, N 68) was 2 (2.9) n (%) and the “Treatment-related SAE: Leukemoid reaction” value (all patients, Population, N 68) was 1 (1.5) n (%). For the same compound, the RP2D (based on safety data from a previous phase 1 study and randomization in Part 1) was 40 mg QOD and the “treatment discontinuation because of AEs” value (in vivo) was “no patients discontinued treatment because of AEs”.
